IC50 data for 36 compounds are collected here from US20260209233A1, “ANNULATED PYRIDAZINE DERIVATIVE” (Tenvie Therapeutics, Inc., priority 2022, published 2026).

As usually defined, the pIC50 is the negative decadic logarithm of the IC50, by convention in mol/L.

pIC50: −log10 of the molar value. Counter-ions that a name gives are not always drawn.

This assay deals with T1, NLRP3 inflammasome (Homo sapiens, UniProt Q96P20).
T1 construct: endogenous in cells; host or cells: THP-1 cells, PMA-differentiated and stimulated with LPS and ATP
T1 sequence (Q96P20 whole entry): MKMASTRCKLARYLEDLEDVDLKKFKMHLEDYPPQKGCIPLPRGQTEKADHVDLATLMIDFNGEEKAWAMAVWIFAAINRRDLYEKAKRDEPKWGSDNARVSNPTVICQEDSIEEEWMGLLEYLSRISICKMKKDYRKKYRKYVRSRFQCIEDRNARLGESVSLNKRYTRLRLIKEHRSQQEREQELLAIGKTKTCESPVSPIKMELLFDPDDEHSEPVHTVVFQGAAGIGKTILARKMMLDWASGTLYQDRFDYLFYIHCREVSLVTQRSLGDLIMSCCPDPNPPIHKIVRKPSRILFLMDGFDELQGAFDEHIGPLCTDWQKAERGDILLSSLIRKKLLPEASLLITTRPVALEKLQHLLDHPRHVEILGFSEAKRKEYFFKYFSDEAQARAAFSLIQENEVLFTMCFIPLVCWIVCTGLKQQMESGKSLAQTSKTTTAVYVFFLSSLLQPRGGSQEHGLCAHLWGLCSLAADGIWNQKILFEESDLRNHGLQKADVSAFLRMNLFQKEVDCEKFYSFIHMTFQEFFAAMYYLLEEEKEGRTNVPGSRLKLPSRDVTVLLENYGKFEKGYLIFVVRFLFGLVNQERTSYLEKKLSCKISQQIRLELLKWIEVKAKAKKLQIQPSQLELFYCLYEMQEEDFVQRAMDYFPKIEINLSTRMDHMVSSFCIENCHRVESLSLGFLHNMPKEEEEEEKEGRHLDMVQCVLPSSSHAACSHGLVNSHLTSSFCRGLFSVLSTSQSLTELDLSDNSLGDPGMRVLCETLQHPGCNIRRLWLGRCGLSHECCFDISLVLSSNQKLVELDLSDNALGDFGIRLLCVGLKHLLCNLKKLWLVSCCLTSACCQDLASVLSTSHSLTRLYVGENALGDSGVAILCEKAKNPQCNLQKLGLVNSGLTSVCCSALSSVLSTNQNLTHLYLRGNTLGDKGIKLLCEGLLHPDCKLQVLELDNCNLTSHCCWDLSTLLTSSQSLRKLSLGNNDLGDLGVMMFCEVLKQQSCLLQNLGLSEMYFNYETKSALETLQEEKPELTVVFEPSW
The assay is described as follows: THP-1 IL-1β production inhibition test. It counts as cell-based. The following applies: PMA-treated THP-1 cells, LPS 50 ng/ml + ATP 5 mM, 2 hours, IL-1β in supernatant by ELISA. How it is done:
Test Example 1: THP-1 IL-1β Production Inhibition Test
PMA (phorbol myristate acetate, SIGMA, P1585) was added to THP-1 cells in an amount of 50 ng/mL to culture the cells for 2 days at 37° C. The culture medium was replaced with a serum-free RPMI-1640 medium, and a compound with a known concentration was added thereto to culture the cells at 37° C. for 15 minutes. LPS (Lipopolysaccharide, SIMGA, L2880) and ATP (Adenosine triphosphate, SIGMA, A2383) were added so that final concentrations become 50 ng/ml and 5 mM, respectively, followed by culturing at 37° C. for 2 hours. The supernatants were collected to measure the concentrations of IL-1β by ELISA (DuoSet ELISA human IL-1β, R&D Systems, DY201). The IL-1β concentrations were plotted against log concentrations of test compounds, and an IC50 value was calculated by sigmoid Emax model nonlinear regression analysis.
Example compounds were confirmed to inhibit NLRP3 inflammasome activation and IL-1β production.
For the compound `Cc1c(-c2ccc(C(F)(F)F)cc2O)nnc2c1CCCN2[C@@H]1CC[C@H](C#N)C1` [Example 22], the pIC50 was 6.92.

For the compound `Cc1c(-c2ccc(C(F)(F)F)cc2O)nnc2c1CCCN2[C@@H]1CCCN(C(N)=O)C1` [Example 33, (3R)-3-{3-[2-hydroxy-4-(trifluoromethyl)phenyl]-4-methyl-6,7-dihydropyrido[2,3-c]pyridazin-8(5H)-yl}piperidin-1-carboxyamide], the negative logarithm of the IC50 (pIC50) is 7.26.

Regarding `Cc1c(-c2ccc(OC(F)F)cc2O)nnc2c1CCCN2[C@@H]1CCOC[C@H]1O` [Example 29, (3S,4R)-4-{3-[4-(difluoromethoxy)-2-hydroxyphenyl]-4-methyl-6,7-dihydropyrido[2,3-c]pyridazin-8(5H)-yl}oxan-3-ol], the negative-log IC50 (pIC50) was 7.89.

As to `Cc1c(-c2ccc(C(F)F)cc2O)nnc2c1CN(C)CCN2[C@@H]1CCCC[C@H]1O` [Example 44, 5-(difluoromethyl)-2-{9-[(1R,2R)-2-hydroxycyclohexyl]-4,6-dimethyl-6,7,8,9-tetrahydro-5H-pyridazino[3,4-e][1,4]diazepin-3-yl}phenol], the pIC50 was 7.52.

Turning to `CN[C@@H]1CCCC[C@H]1N1CCCc2c1nnc(-c1ccc(C(F)(F)F)cc1O)c2C` [Example 17], the pIC50 is 6.39.

`Cc1c(-c2ccc(OC(F)F)cc2O)nnc2c1COCCN2[C@@H]1CCCC[C@H]1O` [Example 30, 5-(difluoromethoxy)-2-{9-[(1R,2R)-2-hydroxycyclohexyl]-4-methyl-5,7,8,9-tetrahydropyridazino[3,4-e][1,4]oxaazepin-3-yl}phenol]: the pIC50 is 8.02.

In the case of `Cc1c(-c2ccc(OC(F)F)cc2O)nnc2c1CCCN2[C@@H]1CCCC[C@H]1O` [Example 28, 5-(difluoromethoxy)-2-{8-[(1R,2R)-2-hydroxycyclohexyl]-4-methyl-5,6,7,8-tetrahydropyrido[2,3-c]pyridazin-3-yl}phenol], the pIC50 was 8.09.

With `Cc1c(-c2ccc(C(F)(F)F)cc2O)nnc2c1CCCN2[C@H]1CNC(=O)C1` [Example 15], the pIC50 is 6.11.

Consider `Cc1c(-c2ccc(C(F)(F)F)cc2O)nnc2c1COCCN2[C@@H]1CCCC[C@H]1O` [Example 4, 2-{9-[(1R,2R)-2-hydroxycyclohexyl]-4-methyl-5,7,8,9-tetrahydropyridazino[3,4-e][1,4]oxaazepin-3-yl}-5-(trifluoromethyl)phenol], for which the pIC50 is 8.17.

As for `Cc1c(-c2ccc(OC(F)(F)F)cc2O)nnc2c1CCCN2[C@@H]1CCCN(C)C1` [Example 10], the pIC50 was 7.31.

On to `CCN1CCC[C@@H](N2CCCc3c2nnc(-c2ccc(C(F)(F)F)cc2O)c3C)C1` [Example 3, 2-{8-[(3R)-1-ethylpiperidin-3-yl]-4-methyl-5,6,7,8-tetrahydropyrid[2,3-c]pyridazin-3-yl}-5-(trifluoromethyl)phenol], for which the pIC50 is 8.52.

Regarding `Cc1c(-c2ccc(C(F)(F)F)cc2O)nnc2c1CCCN2[C@@H]1CCCN(C)C1=O` [Example 14], the pIC50 was 7.66.

Turning to `Cc1c(-c2ccc(C(F)(F)F)cc2O)nnc2c1CN(C)CN2[C@@H]1CCCC[C@H]1O` [Example 36, 2-{8-[(1R,2R)-2-hydroxycyclohexyl]-4,6-dimethyl-5,6,7,8-tetrahydropyrimido[4,5-c]pyridazin-3-yl}-5-(trifluoromethyl)phenol], the pIC50 was 7.96.

With `Cc1c(-c2ccc(C(F)(F)F)cc2O)nnc2c1CCCN2[C@@H]1CCCN(C)C1` [Example 2, 2-{4-methyl-8-[(3R)-1-methylpiperidin-3-yl]-5,6,7,8-tetrahydropyrido[2,3-c]pyridazin-3-yl}-5-(trifluoromethyl)phenol], the pIC50 is 8.20.

With `Cc1c(-c2ccc(C(F)(F)F)cc2O)nnc2c1CCCCN2[C@@H]1CCCC[C@H]1O` [Example 12], the pIC50 is 7.36.

On to `Cc1c(-c2ccc(C(F)(F)F)cc2O)nnc2c1CCN2[C@H]1CCNC1=O` [Example 5, (3S)-3-{3-[2-hydroxy-4-(trifluoromethyl)phenyl]-4-methyl-5,6-dihydro-7H-pyrrolo[2,3-c]pyridazin-7-yl}pyrrolidin-2-one], for which the pIC50 is 7.89.

For the compound `Cc1c(-c2ccc(C(F)(F)F)cc2O)nnc2c1CCCN2[C@@H]1CCCC[C@H]1O` [Example 1, 2-{8-[(1R,2R)-2-hydroxycyclohexyl]-4-methyl-5,6,7,8-tetrahydropyrido[2,3-c]pyridazin-3-yl}-5-(trifluoromethyl)phenol], the negative-log IC50 (pIC50) was 7.80.

For `COc1ccc(-c2nnc3c(c2C)COCCN3[C@@H]2CCCN(C)C2)c(O)c1` [Example 6, 5-methoxy-2-{4-methyl-9-[(3R)-1 methylpiperidin-3-yl]-5,7,8,9-tetrahydropyridazino[3,4-e][1,4]oxaazepin-3-yl}phenol], the pIC50 is 7.85.

`Cc1c(-c2ccc(C(F)(F)F)cc2O)nnc2c1CNCCN2[C@@H]1CCCC[C@H]1O` [Example 38, 2-{9-[(1R,2R)-2-hydroxycyclohexyl]-4-methyl-6,7,8,9-tetrahydro-5H-pyridazino[3,4-e][1,4]diazepin-3-yl}-5-(trifluoromethyl)phenol]: the pIC50 is 8.12.

Take `Cc1c(-c2ccc(C(F)(F)F)cc2O)nnc2c1COCCN2[C@@H]1CCCN(CC(F)F)C1` [Example 26]: the pIC50 was 7.85.

Consider `Cc1c(-c2ccc(C(F)(F)F)cc2O)nnc2c1CCN2[C@H]1C[C@@](C)(O)C1` [Example 35, 2-{7-[(1s,3s)-3-hydroxy-3-methylcyclobutyl]-4-methyl-6,7-dihydro-5H-pyrrolo[2,3-c]pyridazin-3-yl}-5-(trifluoromethyl)phenol], for which the pIC50 was 7.36.

Take `Cc1c(-c2ccc(C(F)(F)F)cc2O)nnc2c1CCCN2[C@@H]1CCCN(CCO)C1` [Example 27, 2-{8-[(3R)-1-(2-hydroxyethyl)piperidin-3-yl]-4-methyl-5,6,7,8-tetrahydropyrid[2,3-c]pyridazin-3-yl}-5-(trifluoromethyl)phenol dihydrochloride]: the pIC50 was 7.38.

With `Cc1c(-c2ccc(OC(F)F)cc2O)nnc2c1CCN2[C@H]1CCNC1=O` [Example 45, (3S)-3-{3-[4-(difluoromethoxy)-2-hydroxyphenyl]-4-methyl-5,6-dihydro-7H-pyrrolo[2,3-c]pyridazin-7-yl}pyrrolidin-2-one], the pIC50 is 7.55.

As to `CC(=O)NCCCCN1CCOCc2c1nnc(-c1ccc(C(F)(F)F)cc1O)c2C` [Example 25], the pIC50 was 7.40.

Turning to `CCN1CCN([C@@H]2CCCC[C@H]2O)c2nnc(-c3ccc(C(F)(F)F)cc3O)c(C)c2C1` [Example 41, 2-{6-ethyl-9-[(1R,2R)-2-hydroxycyclohexyl]-4-methyl-6,7,8,9-tetrahydro-5H-pyridazino[3,4-e][1,4]diazepin-3-yl}-5-(trifluoromethyl)phenol], the pIC50 is 7.59.

On to `Cc1c(-c2ccc(C(F)(F)F)cc2O)nnc2c1CCCN2[C@@H]1CCN(C)C[C@H]1O` [Example 16], for which the pIC50 is 5.72.

For `CC(=O)O[C@@H]1CCCC[C@H]1N1CCN(C(C)=O)Cc2c1nnc(-c1ccc(C(F)(F)F)cc1O)c2C` [Example 39, (1R,2R)-2-{6-acetyl-3-[2-hydroxy-4-(trifluoromethyl)phenyl]-4-methyl-5,6,7,8-tetrahydro-9H-pyridazino[3,4-e][1,4]diazepin-9-yl}cyclohexyl acetate], the pIC50 is 6.80.

On to `Cc1c(-c2ccc(Cl)cc2O)nnc2c1COCCN2[C@@H]1CCCC[C@H]1O` [Example 19], for which the pIC50 is 7.52.

Consider `Cc1c(-c2ccc(C(F)(F)F)cc2O)nnc2c1CCCN2[C@@H]1CCCN(C2CC2)C1` [Example 31, 2-{8-[(3R)-1-cyclopropylpiperidin-3-yl]-4-methyl-5,6,7,8-tetrahydropyrido[2,3-c]pyridazin-3-yl}-5-(trifluoromethyl)phenol], for which the pIC50 is 7.92.

As for `Cc1c(-c2ccc(C(F)(F)F)cc2O)nnc2c1CCCN2[C@@H]1CCCNC1=O` [Example 13], the pIC50 is 7.52.

For `Cc1cc(C(F)(F)F)cc(O)c1-c1cc2c(nn1)N([C@@H]1CCCC[C@H]1O)CCC2` [Example 18], the pIC50 was 7.82.

`Cc1c(-c2ccc(C(F)(F)F)cc2O)nnc2c1CCCN2[C@@H]1CCCN(C2COC2)C1` [Example 9]: the pIC50 was 7.46.

`COC(=O)N1CCC[C@@H](N2CCCc3c2nnc(-c2ccc(C(F)(F)F)cc2O)c3C)C1` [Example 32, (3R)-3-{3-[2-hydroxy-4-(trifluoromethyl)phenyl]-4-methyl-6,7-dihydropyrido[2,3-c]pyridazin-8(5H)-yl}piperidine-1-methyl carboxylate]: the pIC50 was 7.02.

Consider `Cc1c(-c2ccc(C(F)(F)F)cc2O)nnc2c1CNC(=O)N2[C@@H]1CCCC[C@H]1O` [Example 37, 8-[(1R,2R)-2-hydroxycyclohexyl]-3-[2-hydroxy-4-(trifluoromethyl)phenyl]-4-methyl-5,8-dihydropyrimido[4,5-c]pyridazin-7 (6H)-one], for which the pIC50 was 6.64.

As to `CC(=O)N1CCN([C@@H]2CCCC[C@H]2O)c2nnc(-c3ccc(C(F)(F)F)cc3O)c(C)c2C1` [Example 40, 1-{9-[(1R,2R)-2-hydroxycyclohexyl]-3-[2-hydroxy-4-(trifluoromethyl)phenyl]-4-methyl-5,7,8,9-tetrahydro-6H-pyridazino[3,4-e][1,4]diazepin-6-yl}ethan-1-one], the pIC50 is 6.72.

`Cc1c(-c2ccc(C(F)(F)F)cc2O)nnc2c1CCCN2c1cc[nH]n1` [Example 43, 2-[4-methyl-8-(1H-pyrazol-3-yl)-5,6,7,8-tetrahydropyrido[2,3-c]pyridazin-3-yl]-5-(trifluoromethyl)phenol]: the pIC50 is 6.64.
